# In patent US10597388B2, “Pyridazinone herbicides” (FMC CORPORATION, priority 2014, dated 2020):
# What was measured:
# Assay type in all cases: in vivo
# [1] = tested on: nutsedge, yellow (yellow nutsedge, Cyperus esculentus); assay: Test C greenhouse herbicide test, pre- and postemergence
# Summary of the method: (§1)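 Visual ratings on a 0 to 100 scale (0 = no effect, 100 = complete control) versus untreated controls, scored 13–15 d after treatment. Soil-applied preemergence to seeded loam/sand; foliar postemergence to 1- to 4-leaf plants (2–18 cm) in peat-vermiculite mix; compounds formulated in solvent plus surfactant.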
# [2] = tested on: velvetleaf (Abutilon theophrasti); assay: as above
# Summary of the method: as §1
# [3] = tested on: galium (catchweed bedstraw, Galium aparine); assay: as above
# Summary of the method: as §1
# [4] = tested on: oilseed rape (Brassica napus); assay: as above
# Summary of the method: as §1
# [5] = tested on: corn (Zea mays); assay: Test A greenhouse herbicide test, pre- and postemergence; conditions: Postemergence
# Summary of the method: (§2)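 Seeds in loam–sand blend received a preemergence directed soil spray; plants at 2–10 cm, one- to two-leaf stage, received postemergence sprays. Compounds in a non-phytotoxic solvent with surfactant. After about 10 d in a greenhouse, injury rated visually versus untreated controls on a 0–100 scale (100 = complete control).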
# [6] = tested on: pigweed (Amaranthus retroflexus); assay: as above
# Summary of the method: as §2
# [7] = tested on: ragweed (common ragweed, Ambrosia elatior); assay: as above
# Summary of the method: as §2
# [8] = tested on: ryegrass, Italian (Italian ryegrass, Lolium multiflorum); assay: as above
# Summary of the method: as §2
# [9] = tested on: foxtail, giant (giant foxtail, Setaria faberii); assay: as above
# Summary of the method: as §2
# [10] = tested on: wheat (Triticum aestivum); assay: as above; conditions: Postemergence
# Summary of the method: as §2
# [11] = tested on: kochia (Kochia scoparia); assay: as above
# Summary of the method: as §2
# [12] = Postemergence, 31 g ai/ha, scale 0 to 100 (0 no effect, 100 complete control)
# [13] = Postemergence, 62 g ai/ha, 0 to 100 scale (0 no effect, 100 complete control)
# [14] = Preemergence, 31 g ai/ha, scale 0 to 100, 0 is no effect, 100 is complete control
# [15] = Preemergence, 62 g ai/ha, scale 0 to 100, 0 is no effect, 100 is complete control
# [16] = Preemergence, 125 g ai/ha, scale 0 to 100, 0 is no effect, 100 is complete control
# [17] = Preemergence, 250 g ai/ha, scale 0 to 100 (0 no effect, 100 complete control)
# [18] = postemergence, 125 g ai/ha, scale 0 to 100, 0 no effect, 100 complete control
# [19] = Postemergence, 250 g ai/ha, scale 0 to 100, 0 is no effect, 100 is complete control
# [20] = 125 g ai/ha, 0 to 100 scale, 0 no effect, 100 complete control
# [21] = 500 g ai/ha, visual rating after approx. 10 d, 0 to 100 scale (0 no effect, 100 complete control)
# [22] = Postemergence, 125 g ai/ha, 0 to 100 scale, 0 no effect, 100 complete control
# [23] = Postemergence, 500 g ai/ha, visual rating after approx. 10 d, 0 to 100 scale (0 no effect, 100 complete control)
# [24] = Preemergence, 125 g ai/ha, visual injury rating, 0 to 100 scale (0 no effect, 100 complete control), approx. 10 d
# [25] = Preemergence, 500 g ai/ha, 0 to 100 scale where 0 is no effect and 100 is complete control
structure (smiles),measurement,setting,value
CSCC(=O)Oc1c(C)nn(C)c(=O)c1-c1cccc2ccccc12 [Compound 171],"Plant response rating, Nutsedge, Yellow",[1]; [12],50
same,"Nutsedge, Yellow plant response rating",[1]; [13],75
same,"Plant response rating, Nutsedge, Yellow",[1]; [14],45
same,"Plant response rating, Nutsedge, Yellow",[1]; [15],55
same,"Plant response rating, Nutsedge, Yellow",[1]; [16],70
same,"Nutsedge, Yellow plant response rating",[1]; [17],90
same,"Nutsedge, Yellow plant response rating",[1]; [18],75
same,"Plant response rating, Velvetleaf",[2]; [12],35
same,Velvetleaf plant response rating,[2]; [13],70
same,"Plant response rating, Velvetleaf",[2]; [19],100
same,"Plant response rating, Velvetleaf",[2]; [14],70
same,"Plant response rating, Velvetleaf",[2]; [15],90
same,"Plant response rating, Velvetleaf",[2]; [16],95
same,Velvetleaf plant response rating,[2]; [18],100
same,"Plant response rating, Galium",[3]; [12],95
same,Galium plant response rating,[3]; [13],95
same,"Plant response rating, Galium",[3]; [19],95
same,"Plant response rating, Galium",[3]; [14],90
same,"Plant response rating, Galium",[3]; [15],90
same,"Plant response rating, Galium",[3]; [16],98
same,Galium plant response rating,[3]; [17],100
same,Galium plant response rating,[3]; [18],95
same,"Plant response rating, Oilseed Rape",[4]; [12],0
same,Oilseed Rape plant response rating,[4]; [13],0
same,"Plant response rating, Oilseed Rape",[4]; [19],30
same,"Plant response rating, Oilseed Rape",[4]; [14],0
same,"Plant response rating, Oilseed Rape",[4]; [15],5
same,"Plant response rating, Oilseed Rape",[4]; [16],50
same,Oilseed Rape plant response rating,[4]; [17],90
same,Oilseed Rape plant response rating,[4]; [18],0
same,"Plant response rating, Corn",[5]; [20],20
same,"Plant response rating, Corn",[5]; [21],40
same,"Plant response rating, Pigweed",[6]; [22],90
same,"Plant response rating, Pigweed",[6]; [23],100
same,"Plant response rating, Pigweed",[6]; [24],90
same,"Plant response rating, Pigweed",[6]; [25],100
same,"Plant response rating, Ragweed",[7]; [22],100
same,"Plant response rating, Ragweed",[7]; [23],100
same,"Plant response rating, Ragweed",[7]; [24],70
same,"Plant response rating, Ragweed",[7]; [25],90
same,"Plant response rating, Ryegrass, Italian",[8]; [22],100
same,"Plant response rating, Ryegrass, Italian",[8]; [23],100
same,"Plant response rating, Ryegrass, Italian",[8]; [24],100
same,"Plant response rating, Ryegrass, Italian",[8]; [25],100
same,"Plant response rating, Foxtail, Giant",[9]; [22],40
same,"Plant response rating, Foxtail, Giant",[9]; [23],90
same,"Plant response rating, Foxtail, Giant",[9]; [24],50
same,"Plant response rating, Foxtail, Giant",[9]; [25],100
same,"Plant response rating, Wheat",[10]; [20],30
same,"Plant response rating, Wheat",[10]; [21],70
same,"Plant response rating, Kochia",[11]; [22],100
same,"Plant response rating, Kochia",[11]; [23],100
same,"Plant response rating, Kochia",[11]; [24],100
same,"Plant response rating, Kochia",[11]; [25],100
Cc1ccc2ccccc2c1-c1c(OC(=O)N2CCOCC2)c(Br)nn(C)c1=O [Compound 176],"Plant response rating, Nutsedge, Yellow",[1]; [12],5
same,"Nutsedge, Yellow plant response rating",[1]; [13],5
same,"Plant response rating, Nutsedge, Yellow",[1]; [19],5
same,"Nutsedge, Yellow plant response rating",[1]; [18],5
same,"Plant response rating, Velvetleaf",[2]; [12],0
same,Velvetleaf plant response rating,[2]; [13],25
same,"Plant response rating, Velvetleaf",[2]; [19],80
same,Velvetleaf plant response rating,[2]; [18],75
same,"Plant response rating, Galium",[3]; [12],0
same,Galium plant response rating,[3]; [13],5
same,"Plant response rating, Galium",[3]; [19],60
same,Galium plant response rating,[3]; [18],60
same,"Plant response rating, Oilseed Rape",[4]; [12],95
same,Oilseed Rape plant response rating,[4]; [13],95
same,"Plant response rating, Oilseed Rape",[4]; [19],95
same,Oilseed Rape plant response rating,[4]; [18],95
same,"Plant response rating, Corn",[5]; [20],0
same,"Plant response rating, Corn",[5]; [21],0
same,"Plant response rating, Pigweed",[6]; [22],30
same,"Plant response rating, Pigweed",[6]; [23],90
same,"Plant response rating, Pigweed",[6]; [24],0
same,"Plant response rating, Pigweed",[6]; [25],90
same,"Plant response rating, Ragweed",[7]; [22],40
same,"Plant response rating, Ragweed",[7]; [23],100
same,"Plant response rating, Ragweed",[7]; [24],20
same,"Plant response rating, Ragweed",[7]; [25],70
same,"Plant response rating, Ryegrass, Italian",[8]; [22],30
same,"Plant response rating, Ryegrass, Italian",[8]; [23],100
same,"Plant response rating, Ryegrass, Italian",[8]; [24],0
same,"Plant response rating, Ryegrass, Italian",[8]; [25],90
same,"Plant response rating, Foxtail, Giant",[9]; [22],0
same,"Plant response rating, Foxtail, Giant",[9]; [23],10
same,"Plant response rating, Foxtail, Giant",[9]; [24],0
same,"Plant response rating, Foxtail, Giant",[9]; [25],10
same,"Plant response rating, Wheat",[10]; [20],0
same,"Plant response rating, Wheat",[10]; [21],0
same,"Plant response rating, Kochia",[11]; [22],30
same,"Plant response rating, Kochia",[11]; [23],70
same,"Plant response rating, Kochia",[11]; [24],0
same,"Plant response rating, Kochia",[11]; [25],20
